# pEC50: −log10 of the molar value.
# System: HCV genotype 1a replicon
# Assay: HCV genotype 1a replicon assay (NS3 protease activity readout)
# Type: cell-based, hepatitis C virus
# Conditions: HCV genotype 1a replicon
# How it was run: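 EC50 values came from a 4-parameter robust fit of fluorescence (ex 340, em 509 nm) produced by NS3-specific protease in lysates, assayed with 15 μM FRET substrate for 20 min at 37° C, after 48 or 72 hours of compound exposure (0.5% DMSO) of Huh7.5-derived APC89 genotype 1a replicon cells.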
row,Compound,Genotype 1a
1,COC(=O)N[C@H](C(=O)N1C[C@@H](N(C)C)C[C@H]1c1nc(-c2ccc(-c3cc(Cl)c(NC(=O)c4ccc(N5CCN(C(=O)[C@H]6CC6(C)C)C[C@H]5C)nc4)cc3OC(F)(F)F)cc2)c(Cl)[nH]1)C(C)C [Example 2-8],D (D represents pEC50>10 (EC50<0.1 nM))
2,COC(=O)NC(C(=O)N1CC(F)CC1c1nc(-c2ccc(-c3cc(Cl)c(NC(=O)c4ccc(N5CCN(C(=O)C(C)(C)CO)CC5C)nc4)cc3OC(F)(F)F)cc2)c[nH]1)C1CCOCC1 (stereo not drawn) [Example 29-4],D (D represents pEC50>10 (EC50<0.1 nM))
3,COC(=O)N[C@H](C(=O)N1C[C@@H](C)C[C@H]1c1nc(-c2ccc(-c3cc(F)c(NC(=O)c4ccc(N5CCN(C(=O)C6CC67CC7)C[C@H]5C)nc4)cc3Cl)cc2)c[nH]1)C(C)C (stereo partly drawn) [Example 1-84],"C (C represents pEC50 between and 9 and about 10, (EC50 between 1 nM and 0.1 nM))"
4,COC(=O)N[C@H](C(=O)N1C[C@@H](C)C[C@H]1c1nc(-c2ccc(-c3cc(Cl)c(NC(=O)c4ccc(N5C[C@H](C)N(C(=O)[C@H]6CCCN6C(=O)OC)C[C@H]5C)nc4)cc3OC(F)(F)F)cc2)c[nH]1)C(C)C [Example 1-46],D (D represents pEC50>10 (EC50<0.1 nM))
5,COC(=O)NC(C(=O)N1CC(OC)CC1c1nc(-c2ccc(-c3ccc(NC(=O)c4ccc(N5CCN(C(=O)C(C)(C)C)CC5C)nc4)cc3OC(F)(F)F)cc2)c[nH]1)C(C)(C)O (stereo not drawn) [Example 16-18],D (D represents pEC50>10 (EC50<0.1 nM))
6,COC(=O)N[C@H](C(=O)N1C[C@@H](C)C[C@H]1c1nc(-c2ccc(-c3cc(Cl)c(NC(=O)c4ccc(N5CCN(C(=O)C6CC6)C[C@H]5C)nc4)cc3C(F)(F)F)cc2)c[nH]1)C(C)C [Example 1-54],D (D represents pEC50>10 (EC50<0.1 nM))
7,CNC(=O)N1C[C@@H](C)N(c2ccc(C(=O)Nc3cc(OC(F)(F)F)c(-c4ccc(-c5c[nH]c([C@@H]6C[C@H](C)CN6C(=O)[C@@H](NC(=O)OC)C6CC6)n5)cc4)cc3Cl)cn2)C[C@@H]1C [Example 7-3],D (D represents pEC50>10 (EC50<0.1 nM))
8,COC(=O)NC(C(=O)N1C(C)CCC1c1nc(-c2ccc(-c3ccc(C(=O)Nc4ccc(N5CCN(C(=O)C6CC6(C)C)CC5C)nc4)cc3OC(F)(F)F)cc2)c(Cl)[nH]1)C(C)C (stereo not drawn) [Example 18-1],"C (C represents pEC50 between and 9 and about 10, (EC50 between 1 nM and 0.1 nM))"
9,COC(=O)N[C@H](C(=O)N1C[C@@H](C)C[C@H]1c1nc(-c2ccc(-c3cc(F)c(NC(=O)c4ccc(N5CCN(C(=O)[C@]6(C)CCCN6C(=O)OC(C)(C)C)C[C@H]5C)nc4)cc3OC(F)(F)F)cc2)c[nH]1)C(C)C [Example 1-26],D (D represents pEC50>10 (EC50<0.1 nM))
10,COC(=O)N[C@H](C(=O)N1C[C@@H](O)C[C@H]1c1nc(-c2ccc(-c3cc(Cl)c(NC(=O)c4ccc(N5CCN(C(=O)C(C)(C)CO)C[C@H]5C)nc4)cc3OC(F)(F)F)cc2)c[nH]1)C(C)C [Example 26-9],"C (C represents pEC50 between and 9 and about 10, (EC50 between 1 nM and 0.1 nM))"
11,COC(=O)N[C@H](C(=O)N1C[C@H](O)C[C@H]1c1nc(-c2ccc(-c3ccc(NC(=O)c4ccc(N5CCN(C(=O)[C@]6(C)CCCN6C(=O)OC)C[C@H]5C)nc4)cc3)cc2)c[nH]1)C(C)C [Example 26-1],A (A represents a pEC50 value between 6 and 8 (EC50 between 1 μM and 10 nM))
12,CC[C@@H](C)C(=O)N1CCN(c2ccc(C(=O)Nc3cc(OC(F)(F)F)c(-c4ccc(-c5c[nH]c([C@@H]6C[C@H](C)CN6C(=O)[C@@H](NC(=O)OC)C(C)C)n5)cc4)cc3Cl)cn2)[C@H](C)C1 [Example 1-86],D (D represents pEC50>10 (EC50<0.1 nM))
13,COC(=O)N[C@H](C(=O)N1C[C@@H](C)C[C@H]1c1nc(-c2ccc(-c3cc(Cl)c(NC(=O)c4ccc(N5CCN(C(=O)C(C)(C)C)C[C@H]5C)nc4)cc3C(F)(F)F)cc2)c[nH]1)C1CCCCC1 [Example 19-8],B (B represents pEC50 between 8 and 9 (EC50 between 1 and 10 nM))
14,COC(=O)N[C@H](C(=O)N1C[C@@H](N2CCOCC2)C[C@H]1c1nc(-c2ccc(-c3cc(Cl)c(NC(=O)c4ccc(N5CCN(C(=O)[C@H]6CC6(C)C)C[C@H]5C)nc4)cc3OC(F)(F)F)cc2)c[nH]1)C(C)C [Example 15-4],D (D represents pEC50>10 (EC50<0.1 nM))
15,COC(=O)N[C@@H](C(=O)N1C[C@@H](OC)C[C@H]1c1nc(-c2ccc(-c3cc(Cl)c(NC(=O)c4ccc(N5CCN(C(=O)C(C)(C)CO)C[C@H]5C)nc4)cc3C(F)(F)F)cc2)c[nH]1)C1CCCCC1 [Example 19-14],A (A represents a pEC50 value between 6 and 8 (EC50 between 1 μM and 10 nM))
16,CNC(=O)N1CCC[C@@]1(C)C(=O)N1C[C@@H](C)N(c2ccc(C(=O)Nc3cc(OC(F)(F)F)c(-c4ccc(-c5c[nH]c([C@@H]6C[C@H](C)CN6C(=O)[C@@H](NC(=O)OC)C(C)C)n5)cc4)cc3Cl)cn2)C[C@@H]1C [Example 1-23],D (D represents pEC50>10 (EC50<0.1 nM))

# Same assay, conditions: Hepatitis C virus, read-out: Genotype 1a, HCV genotype 1a replicon
row,Compound,pEC50
1,COC(=O)N[C@H](C(=O)N1C[C@@H](C)C[C@H]1c1nc(-c2ccc(-c3cc(Cl)c(NC(=O)c4ccc(N5CCN(C(=O)C(C)(C)C)C[C@H]5C)nc4)cc3OC(F)(F)F)cc2)c[nH]1)[C@H](C)OC [Example 13-8],> 10.00
2,COC(=O)N[C@H](C(=O)N1C[C@@H](S(C)(=O)=O)C[C@H]1c1nc(-c2ccc(-c3ccc(C(=O)Nc4ccc(N5CCN(C(=O)[C@H]6CC6(C)C)C[C@H]5C)nc4)cc3OC(F)(F)F)cc2)c[nH]1)C(C)C [Example 6-21],9.00 to 10.00
3,COC(=O)N[C@H](C(=O)N1C[C@@H](C)C[C@H]1c1nc(-c2ccc(-c3cc(Cl)c(NC(=O)c4ccc(N5CCN(C(=O)C(C)(C)C(=O)O)C[C@H]5C)nc4)cc3OC(F)(F)F)cc2)c[nH]1)C(C)C [Example 12-58],9.00 to 10.00
4,COC(=O)N[C@H](C(=O)N1C[C@@H](C)C[C@H]1c1nc(-c2ccc(-c3cc(Cl)c(NC(=O)c4ccc(N5CCN(C(=O)C6CC(N)C6)C[C@H]5C)nc4)cc3OC(F)(F)F)cc2)c[nH]1)C(C)C (stereo partly drawn) [Example 12-52],9.00 to 10.00
5,COC(=O)N[C@H](C(=O)N1C[C@@H](C)C[C@H]1c1nc(-c2ccc(-c3cc(Cl)c(NC(=O)c4ccc(N5CCN(C(=O)C(C)(C)CNS(C)(=O)=O)C[C@H]5C)nc4)cc3OC(F)(F)F)cc2)c[nH]1)C(C)C [Example 12-46],> 10.00
6,COC(=O)N[C@H](C(=O)N1C[C@@H](C)C[C@H]1c1nc(-c2ccc(-c3cc(Cl)c(NC(=O)c4ccc(N5CCN(C(=O)C6CCOCC6)C[C@H]5C)nc4)cc3OC(F)(F)F)cc2)c[nH]1)C(C)C [Example 12-27],9.00 to 10.00
7,COC[C@H]1C[C@@H](c2nc(-c3ccc(-c4cc(Cl)c(NC(=O)c5ccc(N6CCN(C(=O)C(C)(C)C)C[C@H]6C)nc5)cc4OC(F)(F)F)cc3)c[nH]2)N(C(=O)[C@@H](NC(=O)OC)C(C)C)C1 [Example 15-13],> 10.00
8,CNC(=O)NCC(C)(C)C(=O)N1CCN(c2ccc(C(=O)Nc3cc(OC(F)(F)F)c(-c4ccc(-c5c[nH]c([C@@H]6C[C@H](C)CN6C(=O)[C@@H](NC(=O)OC)C(C)C)n5)cc4)cc3Cl)cn2)[C@H](C)C1 [Example 12-40],> 10.00
